Experiments:
[1] = system: MCF7; assay: Cytotoxicity against human MCF-7 cells relative to control; type: functional
[2] = system: MCF7; assay: Cytotoxicity against human MCF-7 cells; type: functional, cell-based
[3] = Inhibition of DNA topoisomerase II (unknown origin)
[4] = target: Vascular endothelial growth factor receptor 2 (Homo sapiens, UniProt P35968); assay: Inhibition of VEGFR2 (unknown origin)
[5] = system: A549; assay: Antiproliferative activity against human A549 cells incubated for 48 hrs by MTT assay; type: functional, cell-based; conditions: A549, 48 h
[6] = system: HeLa; assay: Antiproliferative activity against human HeLa cells incubated for 48 hrs by MTT assay; type: functional, cell-based
[7] = system: EL4; assay: Cytotoxicity against mouse EL4 cells by MTT assay; type: functional, cell-based
[8] = system: T-cell; assay: Cytotoxicity against mouse T-lymphocyte cells by MTT assay; type: functional, cell-based
[9] = Cytotoxicity against mouse LB3 cells by MTT assay; type: functional, cell-based
[10] = target: Tubulin; assay: Inhibition of tubulin polymerization (unknown origin) by spectrophotometric method; type: protein-complex assay, Homo sapiens
[11] = system: MCF7; assay: Cytotoxicity against human MCF7 cells by MTT assay; type: functional, cell-based
[12] = system: MDA-MB-231; assay: Cytotoxicity against human MDA-MB-231 cells by MTT assay; type: functional, cell-based
[13] = target: Epidermal growth factor receptor (Homo sapiens, UniProt P00533); assay: Inhibition of EGFR (unknown origin)
[14] = target: Receptor tyrosine-protein kinase erbB-2 (Homo sapiens, UniProt P04626); assay: Inhibition of HER2 (unknown origin)
[15] = system: HeLa; assay: Cytotoxicity against human HeLa cells incubated for 72 hrs by MTT assay; type: functional, cell-based
[16] = system: HepG2; assay: Cytotoxicity against human HepG2 cells incubated for 72 hrs by MTT assay; type: functional, cell-based; conditions: HepG2, 72 h
[17] = Cytotoxicity against human Lu1 cells incubated for 72 hrs by MTT assay; type: functional, cell-based; conditions: Lu1, 72 h
[18] = system: HeLa; assay: Antiproliferative activity against human HeLa cells; type: functional, cell-based
[19] = target: Albumin (Homo sapiens, UniProt P02768); assay: Reversible binding affinity to human serum albumin
[20] = target: Carbonic anhydrase 1 (Homo sapiens, UniProt P00915); assay: Binding affinity to human CA1 assessed as inhibition constant incubated for 10 mins by phenol red dye based stopped flow CO2 hydration assay
[21] = target: Carbonic anhydrase 2 (Homo sapiens, UniProt P00918); assay: Binding affinity to human CA2 assessed as inhibition constant incubated for 10 mins by phenol red dye based stopped flow CO2 hydration assay
[22] = target: Carbonic anhydrase 9 (Homo sapiens, UniProt Q16790); assay: Binding affinity to human CA9 assessed as inhibition constant incubated for 10 mins by phenol red dye based stopped flow CO2 hydration assay
[23] = target: Carbonic anhydrase 12 (Homo sapiens, UniProt O43570); assay: Binding affinity to human CA12 assessed as inhibition constant incubated for 10 mins by phenol red dye based stopped flow CO2 hydration assay
[24] = system: MDA-MB-231; assay: Antiproliferative activity against human MDA-MB-231 cells incubated for 96 hrs by MTT assay; conditions: MDA-MB-231, 96 h
[25] = system: T98G; assay: Induction of apoptosis in human T98G cells relative to control; type: functional
[26] = system: HepG2; assay: Cytotoxicity against human HepG2 cells incubated for 2 days by Neutral Red staining based assay; type: functional, cell-based; conditions: HepG2, 48 h
[27] = system: HCT-116; assay: Cytotoxicity against human HCT-116 cells incubated for 2 days by Neutral Red staining based assay; type: functional, cell-based; conditions: HCT-116, 48 h
[28] = system: SK-LU-1; assay: Cytotoxicity against human SK-LU-1 cells incubated for 2 days by Neutral Red staining based assay; type: functional, cell-based; conditions: SK-LU-1, 48 h
[29] = Cytotoxicity against African green monkey Vero cells incubated for 2 days by Neutral Red staining based assay; type: toxicity, cell-based, Chlorocebus sabaeus
[30] = system: HepG2; assay: Induction of apoptosis in human HepG2 cells assessed as necrotic cells at 1 time IC50 incubated for 12 hrs by annexin V-FITC and PI staining based flow cytometry analysis relative to control; type: functional
[31] = system: HepG2; assay: Induction of apoptosis in human HepG2 cells assessed as necrotic cells at 2 times IC50 incubated for 12 hrs by annexin V-FITC and PI staining based flow cytometry analysis relative to control; type: functional
[32] = system: HepG2; assay: Induction of apoptosis in human HepG2 cells at 1 time IC50 incubated for 24 hrs by annexin V-FITC and PI staining based flow cytometry analysis relative to control; type: functional
[33] = system: HepG2; assay: Induction of apoptosis in human HepG2 cells at 2 times IC50 incubated for 24 hrs by annexin V-FITC and PI staining based flow cytometry analysis relative to control; type: functional
[34] = system: HepG2; assay: Induction of apoptosis in human HepG2 cells assessed as necrotic cells at 1 time IC50 incubated for 24 hrs by annexin V-FITC and PI staining based flow cytometry analysis relative to control; type: functional
[35] = system: HepG2; assay: Induction of apoptosis in human HepG2 cells assessed as necrotic cells at 2 times IC50 incubated for 24 hrs by annexin V-FITC and PI staining based flow cytometry analysis relative to control; type: functional
[36] = system: MCF7; assay: Antiproliferative activity against human MCF7 cells measured after 72 hrs by MTT assay; type: functional, cell-based; conditions: MCF7, 72 h
[37] = system: SK-OV-3; assay: Antiproliferative activity against human SK-OV-3 cells measured after 21 hrs by MTT assay; type: functional, cell-based; conditions: SK-OV-3, 21 h
[38] = Induction of apoptosis in human MOG-G-CCM cells relative to control; type: functional
[39] = Induction of autophagy in human MOG-G-CCM cells relative to control; type: functional

Chain of Epidermal growth factor receptor (P00533 whole entry): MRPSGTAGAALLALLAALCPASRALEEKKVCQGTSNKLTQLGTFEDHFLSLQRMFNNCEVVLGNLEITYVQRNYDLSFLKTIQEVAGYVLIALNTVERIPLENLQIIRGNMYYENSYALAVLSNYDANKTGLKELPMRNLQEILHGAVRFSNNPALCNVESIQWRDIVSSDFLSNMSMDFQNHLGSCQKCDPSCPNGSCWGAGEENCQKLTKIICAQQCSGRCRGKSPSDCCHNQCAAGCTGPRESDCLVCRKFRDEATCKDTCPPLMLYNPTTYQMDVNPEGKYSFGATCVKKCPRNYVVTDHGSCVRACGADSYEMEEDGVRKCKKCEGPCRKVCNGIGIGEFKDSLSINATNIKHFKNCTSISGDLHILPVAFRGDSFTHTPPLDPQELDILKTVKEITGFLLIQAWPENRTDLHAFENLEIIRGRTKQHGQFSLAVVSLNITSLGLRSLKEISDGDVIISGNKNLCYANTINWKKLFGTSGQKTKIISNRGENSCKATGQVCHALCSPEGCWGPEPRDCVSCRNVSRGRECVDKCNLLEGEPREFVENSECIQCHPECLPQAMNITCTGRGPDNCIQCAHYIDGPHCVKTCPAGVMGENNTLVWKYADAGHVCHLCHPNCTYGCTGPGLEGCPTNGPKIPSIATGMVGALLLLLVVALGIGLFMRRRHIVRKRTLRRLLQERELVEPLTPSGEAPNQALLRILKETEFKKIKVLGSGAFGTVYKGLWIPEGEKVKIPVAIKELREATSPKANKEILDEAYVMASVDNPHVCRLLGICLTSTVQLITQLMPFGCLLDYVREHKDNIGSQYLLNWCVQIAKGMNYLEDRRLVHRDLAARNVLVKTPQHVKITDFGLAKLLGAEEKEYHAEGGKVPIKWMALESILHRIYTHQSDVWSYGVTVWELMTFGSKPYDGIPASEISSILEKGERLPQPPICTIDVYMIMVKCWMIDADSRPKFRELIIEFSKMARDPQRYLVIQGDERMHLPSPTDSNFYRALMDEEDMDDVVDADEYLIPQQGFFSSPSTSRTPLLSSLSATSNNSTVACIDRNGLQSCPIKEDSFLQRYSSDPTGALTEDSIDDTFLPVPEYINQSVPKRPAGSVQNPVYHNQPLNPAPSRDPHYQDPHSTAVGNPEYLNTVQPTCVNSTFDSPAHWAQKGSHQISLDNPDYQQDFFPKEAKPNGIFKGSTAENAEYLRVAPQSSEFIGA
Chain of Receptor tyrosine-protein kinase erbB-2 (P04626 whole entry): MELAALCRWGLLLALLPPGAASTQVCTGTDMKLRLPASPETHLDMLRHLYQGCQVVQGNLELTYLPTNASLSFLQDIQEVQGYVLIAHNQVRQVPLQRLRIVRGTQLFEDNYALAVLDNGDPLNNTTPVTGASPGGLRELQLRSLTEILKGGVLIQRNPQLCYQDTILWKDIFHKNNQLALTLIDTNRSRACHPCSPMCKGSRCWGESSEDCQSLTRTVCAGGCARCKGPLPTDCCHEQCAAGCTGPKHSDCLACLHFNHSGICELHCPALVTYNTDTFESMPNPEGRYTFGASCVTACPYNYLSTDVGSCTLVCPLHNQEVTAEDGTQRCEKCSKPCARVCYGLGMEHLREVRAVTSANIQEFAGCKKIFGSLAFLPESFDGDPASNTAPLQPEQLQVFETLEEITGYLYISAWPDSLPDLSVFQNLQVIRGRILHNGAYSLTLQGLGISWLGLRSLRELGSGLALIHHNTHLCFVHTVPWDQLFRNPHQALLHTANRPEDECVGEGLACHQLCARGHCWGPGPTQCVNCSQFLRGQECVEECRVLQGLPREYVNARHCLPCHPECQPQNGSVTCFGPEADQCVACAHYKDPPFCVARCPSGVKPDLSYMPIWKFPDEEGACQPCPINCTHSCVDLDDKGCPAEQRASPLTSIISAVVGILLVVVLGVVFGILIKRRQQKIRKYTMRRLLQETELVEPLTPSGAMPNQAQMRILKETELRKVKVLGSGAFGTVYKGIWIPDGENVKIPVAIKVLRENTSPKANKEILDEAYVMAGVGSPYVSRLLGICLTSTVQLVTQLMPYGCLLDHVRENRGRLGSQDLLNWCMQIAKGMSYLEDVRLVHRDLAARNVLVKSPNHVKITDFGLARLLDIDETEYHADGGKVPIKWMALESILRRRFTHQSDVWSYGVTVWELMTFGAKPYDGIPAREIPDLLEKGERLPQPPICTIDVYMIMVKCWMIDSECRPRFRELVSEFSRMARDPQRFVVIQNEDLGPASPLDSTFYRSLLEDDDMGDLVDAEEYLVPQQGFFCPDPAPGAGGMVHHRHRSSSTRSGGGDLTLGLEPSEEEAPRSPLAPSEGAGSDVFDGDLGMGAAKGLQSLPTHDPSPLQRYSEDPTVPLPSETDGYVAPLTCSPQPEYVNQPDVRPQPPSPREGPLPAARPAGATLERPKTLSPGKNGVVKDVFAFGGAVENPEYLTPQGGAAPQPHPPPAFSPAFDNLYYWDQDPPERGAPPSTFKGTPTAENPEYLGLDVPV
Chain of Carbonic anhydrase 1 (P00915 whole entry): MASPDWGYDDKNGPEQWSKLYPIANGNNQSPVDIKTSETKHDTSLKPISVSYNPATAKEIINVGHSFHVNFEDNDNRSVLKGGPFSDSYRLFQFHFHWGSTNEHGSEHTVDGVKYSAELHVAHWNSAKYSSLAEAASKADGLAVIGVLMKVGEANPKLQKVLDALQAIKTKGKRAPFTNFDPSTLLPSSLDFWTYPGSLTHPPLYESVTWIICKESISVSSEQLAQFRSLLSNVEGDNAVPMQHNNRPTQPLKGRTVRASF
Chain of Carbonic anhydrase 12 (O43570 whole entry): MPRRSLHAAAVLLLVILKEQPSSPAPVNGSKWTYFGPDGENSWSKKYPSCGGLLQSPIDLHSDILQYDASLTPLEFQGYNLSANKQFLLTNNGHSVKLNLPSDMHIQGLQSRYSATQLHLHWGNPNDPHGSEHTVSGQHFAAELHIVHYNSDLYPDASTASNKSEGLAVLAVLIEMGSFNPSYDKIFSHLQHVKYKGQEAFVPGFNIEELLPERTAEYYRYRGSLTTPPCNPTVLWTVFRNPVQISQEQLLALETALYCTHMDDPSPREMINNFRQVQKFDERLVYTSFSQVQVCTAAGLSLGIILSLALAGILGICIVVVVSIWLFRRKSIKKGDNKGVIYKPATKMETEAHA
Chain of Albumin (P02768 whole entry): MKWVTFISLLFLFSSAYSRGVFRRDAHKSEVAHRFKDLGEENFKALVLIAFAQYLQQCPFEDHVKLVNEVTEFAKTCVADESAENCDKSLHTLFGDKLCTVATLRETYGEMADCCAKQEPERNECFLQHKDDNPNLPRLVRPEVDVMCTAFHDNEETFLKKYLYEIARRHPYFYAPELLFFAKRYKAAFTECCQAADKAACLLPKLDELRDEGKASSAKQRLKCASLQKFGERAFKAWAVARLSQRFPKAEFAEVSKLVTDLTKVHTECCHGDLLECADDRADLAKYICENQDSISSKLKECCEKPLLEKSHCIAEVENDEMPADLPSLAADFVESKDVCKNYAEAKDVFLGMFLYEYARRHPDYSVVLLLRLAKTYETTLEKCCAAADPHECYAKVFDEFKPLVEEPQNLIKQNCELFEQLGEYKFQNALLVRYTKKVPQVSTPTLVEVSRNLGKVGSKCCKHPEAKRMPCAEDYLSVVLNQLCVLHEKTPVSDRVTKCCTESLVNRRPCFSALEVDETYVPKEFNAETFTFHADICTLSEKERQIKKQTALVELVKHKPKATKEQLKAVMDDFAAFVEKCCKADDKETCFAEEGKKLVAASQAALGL
Chain of Vascular endothelial growth factor receptor 2 (P35968 whole entry): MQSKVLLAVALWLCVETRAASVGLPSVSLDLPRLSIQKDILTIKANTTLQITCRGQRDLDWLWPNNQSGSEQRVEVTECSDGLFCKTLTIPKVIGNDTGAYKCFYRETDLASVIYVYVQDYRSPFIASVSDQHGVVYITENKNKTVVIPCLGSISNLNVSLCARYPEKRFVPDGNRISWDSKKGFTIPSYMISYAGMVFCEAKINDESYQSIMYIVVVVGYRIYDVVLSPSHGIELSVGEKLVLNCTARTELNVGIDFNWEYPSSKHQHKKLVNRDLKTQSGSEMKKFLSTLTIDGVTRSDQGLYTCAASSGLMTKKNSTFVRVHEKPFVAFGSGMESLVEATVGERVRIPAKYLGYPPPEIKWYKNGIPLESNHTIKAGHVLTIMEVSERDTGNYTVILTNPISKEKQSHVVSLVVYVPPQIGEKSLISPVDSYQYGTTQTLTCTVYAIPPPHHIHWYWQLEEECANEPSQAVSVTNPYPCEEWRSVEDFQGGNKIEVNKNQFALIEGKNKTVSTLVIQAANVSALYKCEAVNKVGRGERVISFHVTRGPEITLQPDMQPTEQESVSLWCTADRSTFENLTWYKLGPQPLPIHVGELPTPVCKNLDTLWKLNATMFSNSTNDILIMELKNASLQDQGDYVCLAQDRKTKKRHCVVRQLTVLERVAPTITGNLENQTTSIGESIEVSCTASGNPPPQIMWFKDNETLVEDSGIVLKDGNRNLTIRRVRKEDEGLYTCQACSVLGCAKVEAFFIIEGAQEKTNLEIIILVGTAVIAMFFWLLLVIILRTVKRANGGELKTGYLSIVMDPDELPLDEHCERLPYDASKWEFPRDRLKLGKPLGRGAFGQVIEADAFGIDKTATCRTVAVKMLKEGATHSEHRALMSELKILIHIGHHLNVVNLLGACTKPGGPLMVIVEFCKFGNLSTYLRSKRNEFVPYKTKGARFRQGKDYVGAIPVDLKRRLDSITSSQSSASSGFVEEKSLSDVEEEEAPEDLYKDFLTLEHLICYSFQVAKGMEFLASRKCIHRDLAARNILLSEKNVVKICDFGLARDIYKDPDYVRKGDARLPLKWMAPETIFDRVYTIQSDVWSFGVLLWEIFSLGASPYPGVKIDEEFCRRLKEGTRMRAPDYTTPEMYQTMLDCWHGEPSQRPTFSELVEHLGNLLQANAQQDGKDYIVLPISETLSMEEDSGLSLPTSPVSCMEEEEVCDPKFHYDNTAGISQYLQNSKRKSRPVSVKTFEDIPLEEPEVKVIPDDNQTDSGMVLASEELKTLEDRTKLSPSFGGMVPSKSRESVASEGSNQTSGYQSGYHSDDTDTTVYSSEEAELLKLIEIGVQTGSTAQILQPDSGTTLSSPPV

## COC(=O)C(Cc1ccc(O)cc1)NC(=O)c1cc2ccccc2oc1=O (stereo unspecified)
[1]
  Activity: 97.82%
[2]
  IC50: 4980 nM
[3]
  IC50: 8600 nM
[4]
  IC50: 34200 nM

## COC(=O)C(CCSC)NC(=O)CCNC(=O)c1cc2ccccc2oc1=O (stereo unspecified)
[1]
  Activity: 97.35%
[2]
  IC50: 5850 nM
[3]
  IC50: 4100 nM
[4]
  IC50: 23600 nM

## COc1ccc2oc(=O)cc(COc3c(C)occc3=O)c2c1
[5]
  IC50: 2470 nM
[6]
  IC50: 2470 nM

## O=C(CCCCCNC(=O)c1cc(C(=O)NCCCCCC(=O)Nc2ccc(-c3c(-c4ccc(OCCN5CCCCC5)cc4)c4ccc(OCCN5CCCCC5)cc4oc3=O)cc2)cc(C(=O)NCCCCCC(=O)Nc2ccc(-c3c(-c4ccc(OCCN5CCCCC5)cc4)c4ccc(OCCN5CCCCC5)cc4oc3=O)cc2)c1)Nc1ccc(-c2c(-c3ccc(OCCN4CCCCC4)cc3)c3ccc(OCCN4CCCCC4)cc3oc2=O)cc1
[7]
  IC50: 10000 nM
[8]
  IC50: 10000 nM
[9]
  IC50: 10000 nM

## COc1ccc2c3c(c(=O)oc2c1)CC(C(C)(O)CC/C=C(\C)CCC=C(C)C)O3 (stereo unspecified)
[10]
  IC50: 9200 nM
[11]
  IC50: 19800 nM
[12]
  IC50: 15600 nM

## CC(=O)OC[C@H]1O[C@@H](N(C(C)=O)C2=NN(C(C)=O)C(c3cc(=O)oc4cc(OCCC(C)C)ccc34)S2)[C@H](OC(C)=O)[C@@H](OC(C)=O)[C@@H]1OC(C)=O (stereo partly specified)
[13]
  IC50: 220 nM
[14]
  IC50: 130 nM
[15]
  IC50: 1180 nM
[16]
  IC50: 1180 nM
[17]
  IC50: 1180 nM

## Cc1c(C(C)C)c(=O)oc2cc(O)cc(O)c12
[18]
  IC50: 8000 nM

## CCOc1ccc2c(C3SC(N(C(C)=O)[C@@H]4O[C@H](COC(C)=O)[C@H](OC(C)=O)[C@H](OC(C)=O)[C@H]4OC(C)=O)=NN3C(C)=O)cc(=O)oc2c1 (stereo partly specified)
[13]
  IC50: 220 nM
[14]
  IC50: 130 nM
[15]
  IC50: 1180 nM
[16]
  IC50: 1180 nM
[17]
  IC50: 1180 nM

## Cc1cc(=O)oc2cc(NCc3cc([N+](=O)[O-])ccc3O)ccc12
[19]
  Kd: 30 nM

## Cc1ccc(C(=O)Nc2ccc3c(c2)C=CS(=O)(=O)O3)cc1S(=O)(=O)N1C[C@@H](C)O[C@@H](C)C1
[20]
  Ki: 99.4 nM
[21]
  Ki: 99.4 nM
[22]
  Ki: 30.6 nM
[23]
  Ki: 30.6 nM

## Cc1ccc2oc(=O)cc(COc3c(C)occc3=O)c2c1
[5]
  IC50: 2470 nM
[6]
  IC50: 2470 nM

## Cc1cc(=O)oc2cc(NCc3cc(Cl)cc(Cl)c3O)ccc12
[19]
  Kd: 30 nM

## O=C(Nc1ccc2c(c1)C=CS(=O)(=O)O2)c1ccc(F)c(S(=O)(=O)N2CCCCC2)c1
[20]
  Ki: 99.4 nM
[21]
  Ki: 99.4 nM
[22]
  Ki: 30.6 nM
[23]
  Ki: 30.6 nM

## O=c1cc(O)c2ccccc2o1 [4-HYDROXYCOUMARINS]
[24]
  IC50: > 100000 nM
[25]
  Activity: 15%

## C=CC(C)(C)c1cc2c(O)c3c(c(C(C)(C)C=C)c2oc1=O)OC(C)(C)C=C3 [CLAUSARIN]
[26]
  IC50: 7600 nM
[27]
  IC50: 44600 nM
[28]
  IC50: 6900 nM
[29]
  IC50 at 2 days: 78200 nM
[30]
  Activity: 6.8%
[31]
  Activity: 27.4%
[32]
  Activity: 49.7%
[33]
  Activity: 64.2%
[34]
  Activity: 1.6%
[35]
  Activity: 2.7%

## O=c1ccc2ccc(O)c(O)c2o1 [DAPHNETIN]
[36]
  IC50: 73000 nM

## COc1cccc2c1C(=O)c1c(O)c3c(c(O)c1C2=O)C[C@@](O)(C(=O)CO)C[C@@H]3O[C@H]1C[C@H](N)[C@H](O)[C@H](C)O1 [DOXORUBICIN]
[24]
  IC50: 600 nM
[3]
  IC50: 9650 nM

## O=c1ccc2cc(O)c(O)cc2o1 [ESCULETIN]
[36]
  IC50: 193000 nM

## CC(C)(O[C@@H]1O[C@H](CO)[C@@H](O)[C@H](O)[C@H]1O)[C@H]1Cc2cc3ccc(=O)oc3cc2O1 [NODAKENIN]
[37]
  IC50: > 100000 nM

## O=c1ccc2ccc(O[C@@H]3O[C@H](CO)[C@@H](O)[C@H](O)[C@H]3O)cc2o1 [SKIMMIN]
[37]
  IC50: > 100000 nM

## CNC(=O)c1cc(Oc2ccc(NC(=O)Nc3ccc(Cl)c(C(F)(F)F)c3)cc2)ccn1 [SORAFENIB]
[38]
  Activity: 25%
[39]
  Activity: 1%

## COc1c2c(cc3oc(=O)ccc13)OC(C)(C)C=C2 [XANTHOXYLETIN]
[30]
  Activity: 2.5%
[31]
  Activity: 2.9%

From ChEMBL document CHEMBL5512619, “Anticancer mechanism of coumarin-based derivatives” (Eur J Med Chem, 2024)
